Results reported in patent publication US20230235374A1, “High Throughput Assays for Detecting Translation Readthrough Inducers” (The Trustees of the University of Pennsylvania, priority 2021, published 2023).

Key:
[1] = target: T1, eRF1.eRF3.GDPNP ternary complex (Saccharomyces cerevisiae, UniProt P12385); experiment: [3H]-AzAt photoaffinity labeling of eRF1 within ternary complex; type: binding
T1 construct: made in house; host or cells: E. coli BL21(DE3) CodonPlus
Protocol: (§1) Photoaffinity labeling with [^3H]-AzAt. Samples in Buffer 4, typically 20 μL, were incubated in the dark (20 min for Stop-POST5 and 80S-IRES complexes, 2 min for release factors) with various concentrations of [^3H]-AzAt at 37° C., transferred to a UV-transparent cuvette which was covered with parafilm to prevent evaporation, and irradiated in a Rayonet photochemical reactor equipped with 300 nm UV lamps for 5 min at room temperature. This was followed by quenching with 2 mM DTT at 37° C. for 5 min under ambient light. The irradiation time gave complete photolysis of the phenyl azide moiety in AzAt. Photolysis was also complete at 5 min in the presence of 1 mM ataluren, ruling out internal filtering effects.
(§2) Photoaffinity labeling of release factors. Solutions containing eRF1 (10 μM), eRF3 (20 μM) and 1 mM GMPPMP were pre-incubated at 37° C. for 2 min to form the ternary complex prior to photolabeling with [^3H]-AzAt. After quenching, reaction mixtures were loaded onto a 4-15% mini protean SDS-PAGE gel for protein separation and isolation. Gel slices containing eRF1 or eRF3, as shown by Coomassie Blue R250 staining, were crushed and the radioactivity was extracted in extraction buffer (50 mM Tris-HCl, 150 mM NaCl, and 0.1 mM EDTA; pH 7.5) by vigorously shaking at 70° C. for 30 min. The data fitting was performed using the software Prism. Labeling results of eRF1 alone and within the eRF1.eRF3.GDPNP complex were fit with a one-site binding model and a two-site binding model, respectively.

[2] = system: Small RNAs within Stop-POST5 complex; experiment: AzAt photoincorporation into small RNAs (urea-PAGE, RNAse H fragments); type: binding, shrimp (Artemia salina)
Protocol: FIG. 11 illustrates 8% Urea-PAGE resolution of small RNAs.
as §1
Stop-POST5 and 80S-IRES complexes. 1 μM solutions of either Stop-POST5 or 80S-S.IRES, determined by A260, were photolabeled by [^3H]-AzAt. The sample was then either directly purified by ultracentrifugation through a sucrose cushion to determine the photoincorporation stoichiometry in the complex, or subjected to phenol/chloroform extraction to determine the photoincorporation stoichiometry in the total RNA. To determine the photoincorporation background arising from incomplete removal of noncovalently bound photolyzed AzAt, AzAt was prephotolysed for 5 min before adding to the complex, followed by the 20 min incubation in dark at 37° C. and subsequent sucrose cushion purification or RNA extraction as described above.
(§3) RNaseH Fragment Assay. Total RNA was prepared from the ^3H-AzAt photoaffinity labeled ribosome by phenol-chloroform extraction. RNA: DNA duplexes were formed by incubating total RNA (0.2 μM) with an oligonucleotide pair (1 μM of each, sequences shown Table 1), flanking a specific RNA region, in 22.8 μL of water at 95° C. for 2 min, followed by annealing at 50° C. for 30 s and quenching on ice. Six units (1.2 μL) of RNase H (NEB) and 6 μl of 5×RNase H Reaction Buffer were next added to the RNA: DNA duplex and incubated at 37° C. for 1 hour, followed by phenol-chloroform extraction of RNA. The digested RNA was separated on 12% TBE-Urea PAGE gel, and the target band along with the adjacent upper and bottom gels were sliced by a 2 mm gel cutter. The gel slices were crushed and the ^3H labeled rRNA fragment was extracted in water by vigorously shaking at 70° C. for 30 min, or by overnight extraction in elution buffer (0.3M sodium acetate, 0.25% SDS, 1 mM EDTA). The slurry was removed by centrifugation and the eluted ^3H labeled rRNA in the supernatant was quantified. The stoichiometry of AzAt photoincorporation was calculated based on a gel recovery yield of 20±2%, determined using an authentic sample of [^3H]-Gln-tRNA^Gln.
Small RNAs. AzAt photoincorporation into the 4 small RNAs (CrPV-IRES, 5.8S rRNA, 5S rRNA, and tRNA) contained within POST5 was examined by one-dimensional (1D) urea-PAGE analysis, by RNA-Seq, and by RNAse H fragment assay (FIG. 11).

[3] = system: rRNA fragments I-IV of Stop-POST5; experiment: RNaseH fragment assay, Stop-POST5; type: binding, shrimp (Artemia salina)
Protocol: as §3
Testing the functional pertinence of AzAt photolabeling of 18S A1195, 28S-A3093, 28S-A2672, and 28S-2669. An RNAse H fragment assay was employed to determine whether the potential functionally significant sites identified by LASER-seq correspond to ataluren binding sites relevant for termination activity. In this assay, oligonucleotide hybridization, RNase H digestion and polyacrylamide gel electrophoresis (PAGE) were used to determine the stoichiometry of [^3H]-AzAt photoincorporation into the three rRNA fragments that together include the four nucleotides of interest: Fragment I, 18S-A1195; Fragment II, 26S-A3093; Fragment III, 26S-A2669 and 26S-A2672 (Table 5). The separate addition of four potential competitors of AzAt binding (eRF1 alone, the stably bound eRF1.eRF3.GDPNP complex, ataluren, and the ataluren-like TRID GJ072) was used to test how these affected such photoincorporation. These experiments, the results of which are summarized in Table 5, were performed at two different AzAt concentrations. eRF1 and eRF1.eRF3.GDPNP effects were measured using 300 μM AzAt, paralleling the LASER-Seq PAL experiments.

eRF1 = target: T2, eRF1 (Saccharomyces cerevisiae, UniProt P12385); experiment: [3H]-AzAt photoaffinity labeling of isolated eRF1; type: binding
T2 construct: made in house; host or cells: E. coli BL21(DE3) CodonPlus
Protocol: as §1, §2

[4] = PAL, 30 μM AzAt, alone (AzAt) or plus competing ligand named as label (Ataluren 500 μM, GJ072 150 μM)
[5] = PAL, 30 μM AzAt, alone or plus competing ligand named as label
[6] = Stop-POST5, PAL, 30 μM AzAt, alone or plus Ataluren 500 μM / GJ072 150 μM named as label
[7] = PAL, 300 μM AzAt, alone or plus competing ligand named as label
[8] = Stop-POST5, PAL, 300 μM AzAt, alone or plus competing ligand named as label
[9] = Stop-POST5, PRE, 300 μM prephotolysed AzAt

T2 sequence (P12385 whole entry): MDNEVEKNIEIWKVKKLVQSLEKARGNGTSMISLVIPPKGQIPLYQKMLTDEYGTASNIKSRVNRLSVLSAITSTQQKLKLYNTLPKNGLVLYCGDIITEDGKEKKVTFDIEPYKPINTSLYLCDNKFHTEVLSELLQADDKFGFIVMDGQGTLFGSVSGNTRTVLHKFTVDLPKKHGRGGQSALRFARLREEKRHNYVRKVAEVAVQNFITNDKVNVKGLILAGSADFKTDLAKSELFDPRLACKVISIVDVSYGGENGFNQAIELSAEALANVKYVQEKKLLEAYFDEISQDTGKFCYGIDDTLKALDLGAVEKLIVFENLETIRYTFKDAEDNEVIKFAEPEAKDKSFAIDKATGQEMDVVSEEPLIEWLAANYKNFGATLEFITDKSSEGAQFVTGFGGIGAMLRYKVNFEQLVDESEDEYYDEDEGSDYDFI
T1 sequence (P05453 166-685): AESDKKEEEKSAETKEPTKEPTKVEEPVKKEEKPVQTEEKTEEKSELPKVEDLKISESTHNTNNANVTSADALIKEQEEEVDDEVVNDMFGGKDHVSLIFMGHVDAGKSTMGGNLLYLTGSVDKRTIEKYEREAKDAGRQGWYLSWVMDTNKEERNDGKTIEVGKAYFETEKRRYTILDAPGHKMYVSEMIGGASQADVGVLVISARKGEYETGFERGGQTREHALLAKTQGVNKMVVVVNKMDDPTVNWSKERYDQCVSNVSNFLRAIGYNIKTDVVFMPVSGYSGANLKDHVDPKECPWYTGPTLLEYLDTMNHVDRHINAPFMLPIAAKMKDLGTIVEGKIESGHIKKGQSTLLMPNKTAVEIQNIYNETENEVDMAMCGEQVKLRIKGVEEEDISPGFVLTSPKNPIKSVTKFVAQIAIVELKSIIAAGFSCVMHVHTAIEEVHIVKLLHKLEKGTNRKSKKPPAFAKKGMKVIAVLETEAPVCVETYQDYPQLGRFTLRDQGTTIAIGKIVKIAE
T1 sequence (P12385 whole entry): as the sequence (P12385 whole entry) above

O=C(O)c1cccc(-c2noc(-c3ccccc3F)n2)c1 [Ataluren]
inhibition of AzAt photoincorporation into eRF1 within the ternary complex ([1]; compared with isolated eRF1, FIG. 2E): less marked | Photoincorporation yields into CrPV-IRES nts1-155 [2, 4]: 0.40 ± 0.13 mole % | Photoincorporation yields into 5S rRNA [2, 5]: 0.15 ± 0.01 mole % | Photoincorporation yields into 5.8S rRNA [2, 5]: 0.19 ± 0.01 mole % | Photoincorporation yields into CrPV-IRES All [2, 5]: 0.76 ± 0.05 mole % | Photoincorporation yields into CrPV-IRES nts156-221 [2, 5]: 0.17 ± 0.03 mole % | Photoincorporation yields into CrPV-IRES nts222-278 [2, 5]: 0.07 ± 0.06 mole % | Photoincorporation yields into tRNA^Gln [2, 5]: 0.22 ± 0.03 mole % | effect on AzAt labeling of CrPV-IRES fragments 1-155 and 156-221 ([2]; RNAse H fragment assay): no clearly significant changes | effect on AzAt labeling of small RNAs ([2]; none clearly significant): generally small reductions | effect on AzAt photoincorporation into Fragment IV (26S A1437/A1438) [3]: neither ataluren nor GJ072 reduce labeling at all | effect on AzAt photoincorporation into Fragment I (18S-A1195) ([3]; Stop-POST5): strongly inhibits | effect on AzAt photoincorporation into Fragment II (A3093) ([3]; Stop-POST5): stimulated | effect on AzAt photoincorporation into Fragment III (A2669/A2672) ([3]; Stop-POST5): only weakly inhibited | Photoincorporation yields into 18S A1195/ I: 18S 1151-1206 [3, 6]: 0.06 ± 0.01 mole % | Photoincorporation yields into 26S-A2669:A2672/ III: 26S 2638-2702 [3, 6]: 0.10 ± 0.04 mole % | Photoincorporation yields into 26S-A3093/ II: 26S 3069-3113 [3, 6]: 0.06 ± 0.01 mole % | Photoincorporation yields into RNAse H Fragment IV: 26S 1413-1476 [3, 6]: 0.034 ± 0.006% | effect on AzAt photoincorporation into isolated eRF1 (eRF1; FIG. 2E): substantially inhibited

[N-]=[N+]=Nc1ccc(-c2nc(-c3cccc(C(=O)O)c3)no2)cc1 [AzAt]
Kd ([1]; two-site model, read-out: Kd, tight site photoincorporation into eRF1 within ternary complex): 90 ± 20 µM | Photoincorporation yields into CrPV-IRES nts1-155 [2, 4]: 0.56 ± 0.04 mole % | Photoincorporation yields into 5S rRNA [2, 5]: 0.19 ± 0.01 mole % | Photoincorporation yields into 5.8S rRNA [2, 5]: 0.25 ± 0.01 mole % | Photoincorporation yields into CrPV-IRES All [2, 5]: 0.85 ± 0.14 mole % | Photoincorporation yields into CrPV-IRES nts156-221 [2, 5]: 0.23 ± 0.08 mole % | Photoincorporation yields into CrPV-IRES nts222-278 [2, 5]: 0.06 ± 0.04 mole % | Photoincorporation yields into tRNA^Gln [2, 5]: 0.30 ± 0.04 mole % | Photoincorporation yields into CrPV-IRES nts1-155 ([2]; PAL, 300 μM AzAt, alone (AzAt) or plus competing ligand named as label (eRF1 2 μM, eRF3 4 μM, GDPNP 1 mM)): 7.6 ± 1.5 mole % | Photoincorporation yields into 5S rRNA [2, 7]: 1.62 ± 0.11 mole % | Photoincorporation yields into 5.8S rRNA [2, 7]: 0.89 ± 0.10 mole % | Photoincorporation yields into CrPV-IRES All [2, 7]: 7.3 ± 0.5 mole % | Photoincorporation yields into CrPV-IRES nts156-221 [2, 7]: 3.2 ± 0.8 mole % | Photoincorporation yields into CrPV-IRES nts222-278 [2, 7]: 0.02 ± 0.03 mole % | Photoincorporation yields into tRNA^Gln [2, 7]: 2.3 ± 0.2 mole % | Photoincorporation yields into 5S rRNA ([2]; PRE, 300 μM prephotolysed AzAt): 0.02 ± 0.01 mole % | Photoincorporation yields into 5.8S rRNA ([2]; PRE, 300 μM prephotolysed AzAt): 0.02 ± 0.01 mole % | Photoincorporation yields into CrPV-IRES All ([2]; PRE, 300 μM prephotolysed AzAt): 0.02 ± 0.01 mole % | Photoincorporation yields into CrPV-IRES nts1-155 ([2]; PRE, 300 μM prephotolysed AzAt): 0.02 ± 0.01 mole % | Photoincorporation yields into CrPV-IRES nts156-221 ([2]; PRE, 300 μM prephotolysed AzAt): 0.05 ± 0.04 mole % | Photoincorporation yields into CrPV-IRES nts222-278 ([2]; PRE, 300 μM prephotolysed AzAt): 0.03 ± 0.01 mole % | Photoincorporation yields into tRNA^Gln ([2]; PRE, 300 μM prephotolysed AzAt): 0.41 ± 0.09 mole % | saturating value of photo-incorporation into Fragment II ([3]; FIG. 7B): 0.8% | saturating value of photo-incorporation into Fragment III ([3]; FIG. 7B): 0.8% | Photoincorporation yields into 18S A1195/ I: 18S 1151-1206 [3, 6]: 0.26 ± 0.03 mole % | Photoincorporation yields into 26S-A2669:A2672/ III: 26S 2638-2702 [3, 6]: 0.13 ± 0.04 mole % | Photoincorporation yields into 26S-A3093/ II: 26S 3069-3113 [3, 6]: 0.03 ± 0.01 mole % | Photoincorporation yields into RNAse H Fragment IV: 26S 1413-1476 [3, 6]: 0.020 ± 0.003% | Photoincorporation yields into 26S-A2669:A2672/ III: 26S 2638-2702 [3, 8]: 1.07 ± 0.14 mole % | Photoincorporation yields into 26S-A3093/ II: 26S 3069-3113 [3, 8]: 0.40 ± 0.01 mole % | Photoincorporation yields into RNAse H Fragment IV: 26S 1413-1476 ([3]; Stop-POST5, PAL, 300 μM AzAt, alone or plus competing ligand named as label (eRF1 2 μM, eRF3 4 μM, GDPNP 1 mM)): 0.29 ± 0.03% | Photoincorporation yields into 18S A1195/ I: 18S 1151-1206 ([3]; Stop-POST5, PAL, 300 μM AzAt, alone or plus competing ligand named as label (eRF1 2 μM, eRF3 4 μM, GDPNP)): 1.55 ± 0.20 mole % | Photoincorporation yields into 18S A1195/ I: 18S 1151-1206 [3, 9]: 0.012 ± 0.003 mole % | Photoincorporation yields into 26S-A2669:A2672/ III: 26S 2638-2702 [3, 9]: 0.03 ± 0.02 mole % | Photoincorporation yields into 26S-A3093/ II: 26S 3069-3113 [3, 9]: 0.04 ± 0.01 mole % | KA, photoincorporation into Fragments II and III (PTC) ([3]; fit to eq (1)): 200 ± 40 µM | Kd ([3]; simple hyperbolic binding isotherm, FIG. 7A, read-out: apparent KD, photoincorporation into Fragment I (18S-A1195)): 240 ± 10 µM | Kd (eRF1; hyperbolic saturation curve, read-out: Kd, photoincorporation into isolated eRF1): 110 ± 20 µM
